Laboratory results: patent US20240376057A1, “2,4-DIOXO-1,2,3,4-TETRAHYDROPYRIMIDINE DERIVATIVES AND THEIR USE IN THE TREATMENT OF TUMORS” (ISTITUTO PASTEUR ITALIA, priority 2021, published 2024)
One block for each molecule: values may come before it.

Legend:
[1] = tested on: Panc1 tumor xenograft; assay: Panc1 luciferase xenograft in immunodeficient nude (nu/nu) mice: caliper tumor volume, luminescence, body weight; assay type: in vivo, mouse; conditions: for tumor growth in treated mice: 20 mg/Kg in corn oil, intraperitoneally every two days, vs vehicle
Experimental: To evaluate the in vivo therapeutic effects of compound IPI/01.LF studies on immunodeficient nude (nu/nu) mouse models xenografted with the human pancreatic tumor cells Panc1 were performed.
Panc1 cells were stably transduced with 5 MOI of a lentivirus expressing the luciferase gene (pLenti CMV Puro LUC (w168-1)). The lentiviral vector was purchased from Addgene, Watertown, MA 02472 USA (plasmid #17477); Campeau E, et al A versatile viral system for expression and depletion of proteins in mammalian cells PLoS One (2009) 4(8):e6529.
Stably transduced Panc1 cells were subcutaneously implanted in immunocompromised Balb/C nude athymic mice. When the tumors reached the volume of 200 mm^3, mice were treated with either 20 mg/kg of compound IPI/01.LF dissolved in corn oil or with corn oil (vehicle) alone and injected intraperitoneally every two days. Tumor growth was monitored with a caliper every other day. Data are expressed as the mean±SD of three independent experiments, each performed in triplicate.
Since the grafted Panc1 tumor cells express the ectopic luciferase reporter gene, tumor luminescence was used to monitor the tumor growth. Luminescence was measured using IVIS Lumina III In Vivo Imaging System (PerkinElmer).
Mice were intraperitoneally injected with luciferin (RediJect D-Luciferin Bioluminescent Substrate, PerkinElmer) and analyzed by photon emission (bioluminescence).
L of luciferin (15 mg/mL stock)/gram of mouse body weight were injected in the lower left abdominal quadrant of xenografted Balb/C mice with a 25 gauge needle. After 10 minutes, animals were anesthetized with a mixture of oxygen gas and vaporized isoflurane. Once the animals were fully anesthetized, they were positioned within the animal imaging cassette for image acquisition. Data were analyzed utilizing the LivingImage software. Image acquisition was performed at the beginning (T=0) and at the end (T=17) of the experiment and body weights (g) of mice at time of sacrifice were determined.

[2] = tested on: Panc1 cells; assay: Panc1 pancreatic tumor cell proliferation, Trypan Blue exclusion; assay type: cell-based, human
Source text: The inventor tested compound #1-IPI/01.LF on the proliferation of human pancreatic ductal adenocarcinoma (PDAC) Panc1 cells (American Tissue Cell Culture (ATCC, Manassas, VA, USA); product code: ATCC® CRL-1469™) a human tumor cell line showing a high glycolytic rate (Liu L, Gong L, Zhang Y, Li N. Glycolysis in Panc-1 human pancreatic cancer cells is inhibited by everolimus Experimental and therapeutic medicine (2013) 5: 338-342).
PANC-1 cells were maintained in DMEM supplemented with 10% FBS and 100 units of penicillin/streptomycin. After 72 h, cell proliferation was assayed by Trypan Blue exclusion method. IC50 value was determined by generating a dose-response curves by non-linear regression. Data are expressed as the mean±SD of three independent experiments, each performed in triplicate.

[3] = tested on: LDHA enzyme; assay: LDHA enzymatic activity assay: rate of NADH consumption after pyruvate addition, spectrophotometry at 340 nm, in Med1-MB cell supernatant; assay type: biochemical, mouse; parameters: key to LDH Inhibition (relative inhibitory activity): *** strong; ** middle; * weak; conditions: dose of 100 μM
Experimental: To evaluate whether the observed anti-proliferative effect of IPI/01.LF and derivatives was a specific consequence of the inhibitory activity on the LDHA enzyme, the inventor performed enzymatic activity assays measuring the rate of NADH consumption following the addition of pyruvate by spectrophotometry at […], as previously described [Miskimins W K, Ahn H J, Kim J Y, Ryu S, Jung Y S, Choi J Y. Synergistic anti-cancer effect of phenformin and oxamate. PLoS One. 2014; 9(1):e85576.].
1×10^5 Med1-MB cells were harvested, suspended in 0.1M KH2PO4 (pH 7.2), 2 mM EDTA and 1 mM dithiothreitol (DTT), sonicated in 300 μL assay buffer (50 mmol/L potassium phosphate, pH 7.4), and centrifuged at 10,000 g for 10 minutes at 4° C. The supernatant was added to 50 mM potassium phosphate (pH 7.4), 2 mM pyruvate, and 20 µM NADH. Absorbance was measured over 10 minutes at 340 nm using a spectrophotometer.

[4] = tested on: Med1-MB cells; assay: Med1-MB tumor cell proliferation, Trypan Blue exclusion count; assay type: cell-based, mouse; parameters: key to Growth Inhibition (relative inhibitory activity): *** strong; ** middle; * weak; conditions: for Growth Inhibition (relative inhibitory activity): 72 h treatment
Experimental: Med1-MB cells (a mouse medulloblastoma cell line kindly provided by Dr Yoon-Jae Cho, Stanford, CA USA and disclosed in Hayden Gephart et al. Journal of Neuro-Oncology (2013) volume 115, pages 161-168) were maintained in DMEM supplemented with 10% FBS and 100 units of penicillin/streptomycin.
Med1-MB cells were cultured in Dulbecco's modified Eagle medium (DMEM) supplemented with 10% FBS, 1 mM penicillin-streptomycin and 1 mM glutamine in a humidified incubator at 37° C. and 5% CO2. […] After 72 hours, cells were trypsinized and counted by trypan blue exclusion method.
To evaluate the effect on tumor growth of compound IPI/01.LF, and derivatives, 1×10^4 Med1-MB cells were seeded in 12-well plate and incubated overnight at 37° C. in a humidified incubator. After 24 h, cells were treated with increasing concentrations of compounds for 72 h. At the end of the experiment, cell proliferation was assayed by Trypan Blue exclusion method. IC50 values were determined by generating a dose-response curves by non-linear regression. Data are expressed as the mean±SD of three independent experiments, each performed in triplicate.

- IC50 ([2]; Homo sapiens, PANC-1, Panc1 cells, 72 h, non-linear regression): ~23 µM
- IC50 range, cell proliferation ([2]; Panc1 cells): within the micromolar range
- IC50 ([4]; Mus musculus, 72 h, non-linear regression): ~29 µM
Structure (SMILES): O=C(Nc1ccccc1)c1c[nH]c(=O)n(Cc2ccccc2F)c1=O [#1, 2,4-dioxo-N-phenyl-3-(2-fluorobenzyl)-1,2,3,4-tetrahydropyrimidine-5-carboxamide]
- tumor growth in treated mice [1]: did not grow at all
- tumor growth in treated mice ([1]; listed as IPI/01.LF): significantly lower
- weight of mice ([1]; 20 mg/Kg, T=0 to T=17): unchanged
- tumor luminescent light signal over time ([1]; 20 mg/Kg, T=0 vs T=17 days, IVIS Lumina III): significant regression over time
- tumor mass smaller in treated mice compared to controls at end of experiment ([1]; 20 mg/Kg, end of experiment): 2.5 fold
- mean volume of tumors at end of treatment compared to controls ([1]; 20 mg/kg, end of treatment): significantly reduced
- concentration times lower than oxamate for comparable ability to reduce tumor growth ([2]; in vitro, vs oxamate): > 700 times
- LDH Inhibition (relative inhibitory activity) [3]: ***
- inhibitory effect on LDHA enzymatic activity [3]: marked inhibitory effect
- Growth Inhibition (relative inhibitory activity) [4]: ***
- values times lower than those obtained with oxamate ([4]; vs oxamate): approximately 700 times

Structure (SMILES): O=C(Nc1cccc(Cl)c1)c1c[nH]c(=O)n(Cc2ccccc2)c1=O [#2, 2,4-Dioxo-3-benzyl-N-(3-chlorophenyl)-1,2,3,4-tetrahydropyrimidine-5-carboxamide]
- LDH Inhibition (relative inhibitory activity) [3]: *
- Growth Inhibition (relative inhibitory activity) [4]: *

Structure (SMILES): O=C(Nc1ccccc1F)c1c[nH]c(=O)n(Cc2ccc(F)cc2)c1=O [#3, 2,4-Dioxo-3-(4-fluorobenzyl)-N-(2-fluorophenyl)-1,2,3,4-tetrahydropyrimidine-5-carboxamide]
- LDH Inhibition (relative inhibitory activity) [3]: **
- Growth Inhibition (relative inhibitory activity) [4]: **

Structure (SMILES): O=C(Nc1ccccc1Cl)c1c[nH]c(=O)n(Cc2ccccc2)c1=O [#4, 2,4-Dioxo-3-benzyl-N-(2-chlorophenyl)-1,2,3,4-tetrahydropyrimidine-5-carboxamide]
- LDH Inhibition (relative inhibitory activity) [3]: ***
- Growth Inhibition (relative inhibitory activity) [4]: ***

Structure (SMILES): NC(=O)c1ccc(NC(=O)c2c[nH]c(=O)n(Cc3ccccc3)c2=O)cc1 [#6, 2,4-Dioxo-3-benzyl-N-(4-carboxamidophenyl)-1,2,3,4-tetrahydropyrimidine-5-carboxamide]
- LDH Inhibition (relative inhibitory activity) [3]: ***
- Growth Inhibition (relative inhibitory activity) [4]: ***

Structure (SMILES): COc1ccc(Cn2c(=O)[nH]cc(C(=O)Nc3ccccc3Cl)c2=O)cc1 [#7, 2,4-Dioxo-3-(4-methoxybenzyl)-N-(2-chlorophenyl)-1,2,3,4-tetrahydropyrimidine-5-carboxamide]
- LDH Inhibition (relative inhibitory activity) [3]: ***
- Growth Inhibition (relative inhibitory activity) [4]: ***

Structure (SMILES): NC(=O)C(=O)O [oxamate, reference compound]
- concentration lowering in vitro proliferation ([4]; 72 h): > 20 mM
